Assay results taken from patent US20160045486A1, “DOPAMINE RECEPTOR LIGANDS WITH ENHANCED DURATION OF ACTION” (priority 2008, published 2016).
Where a name gives a salt, the structure may show the parent alone. Read-outs that look alike come from different tables or passages of the source.

How the values were obtained:
[1] = biological target: T1, Cloned human receptors D1 (C-6); experiment: Binding affinity, cloned human D1 receptor (C-6)
T1 construct: C-6 glioma cells expressing the rhesus macaque D1 A receptor, (C-6-m D1 A)
Procedure: Cells were maintained in a humidified incubator at 37° C. with 5% CO2.

[2] = biological target: T2, Cloned human receptors D3 (CHO) (Homo sapiens, UniProt P35462); experiment: Binding affinity, cloned human D3 receptor (CHO)
T2 construct: expressed in transfected cells; host or cells: CHO cells
Procedure: (§1) Binding data from each assay were analyzed separately. Data were normalized by expressing the average dpm at each competitor concentration as a percentage of total binding.

[3] = biological target: T3, Cloned human receptors D2L (C-6) (Homo sapiens, UniProt P14416); experiment: Binding affinity, cloned human D2L receptor (C-6)
T3 construct: expressed in transfected cells; host or cells: C-6 cells
Procedure: as §1

[4] = biological target: Cloned human receptors D5 (HEK) (Homo sapiens, UniProt P21918); experiment: biochemical
Procedure: as §1

[5] = test system: non-dopamine receptors (monoamine transporters, serotonin, adrenergic, hH1, muscarinic, opioid, miscellaneous receptors); experiment: Affinity at other receptors (10 μM screen of non-dopamine receptors and transporters); details: 10 μM concentration; full dose-response only where >50% inhibition of binding
[6] = test system: unilateral 6-OHDA rat model; experiment: Rotation in the unilateral 6-OHDA rat model of Parkinson's disease; format: in vivo
Procedure: Both drugs were administered 1 mg/kg subcutaneously (SC), and the number of rotations measured (i.e., rotations counter clockwise) over time (minutes) using the model first described by
Ungerstedt (Ungerstedt and Arbuthnott, 1970).
In some studies, adult male Sprague Dawley rats (200-250 g) were obtained from Charles River Breeding Laboratories (Raleigh, N.C.) or Harlan Laboratories (Indianapolis, Ind.). Rats were killed by decapitation, and the whole brains removed and chilled briefly in ice-cold saline. Brains were sliced with the aid of a dissecting block, and central striata were then dissected from two coronal sections containing the majority of this region. Tissue was frozen immediately on dry ice and stored at −70° C. until the day of the assay. In other studies, Sprague-Dawley rats weighing between ca. 175 g received unilateral injections of 6-OHDA. They were pretreated with 25 mg/kg desipramine, anesthetized with sodium pentobarbital and placed in a stereotaxic apparatus. Thirty gauge needles were lowered into the right aspects of the substantia nigra at Interaural zero +3.2 mm; lateral −2.0 mm; and dorsoventral −7.7 mm. Four μl of 0.1% ascorbic acid in sterile saline containing 8 μg of 6-OHDA were infused in each side over a period of 20 minutes using 10 μl Hamilton syringes and a Sage syringe pump. The needles were left in place two minutes after infusion to minimize withdrawal of the 6-OHDA solution with the needles. The small burr holes in the skull were plugged with bone wax, and the wound sutured. Post-operative care of these rats included observation, sweet food supplements, and gastric intubation during the aphagic period following lesion. Fourteen or more days after the lesion, rats were challenged with 1 mg/kg apomorphine, and rotations measured. […] The rats were then allowed to “wash-out” for a week between drug trials.

[7] = biological target: T4, cloned hD1 receptors expressed in Ltk cells (Homo sapiens, UniProt P21728); experiment: Dopamine D1 agonist activity, activation of adenylate cyclase; format: cell-based; details: FIG. 2, compared to dihydrexidine
T4 construct: expressed in transfected cells; host or cells: Ltk cells
Procedure: Studies were done in cloned hD1 receptors expressed in Ltk cells.
Frozen membranes were thawed and added to assay tubes (10 μg protein/tube) containing a prepared reaction mixture [100 mM Hepes, (pH 7.4), 100 mM NaCl, 4 mM MgCl2, 2 mM EDTA, 500 μM isobutyl methylxanthine (IBMX), 0.01% ascorbic acid, 10 μM pargyline, 2 mM ATP, 5 μM GTP, 20 mM phosphocreatine, 5 units of creatine phosphokinase (CPK), 1 μM propranolol] and selected drugs. The final reaction volume was 100 μL.
Basal cAMP activity was determined by incubation of tissue in the reaction mixture with no drug added. Tubes were assayed in duplicate and, after a 15 min incubation at 30° C., the reaction was stopped by the addition of 500 μL of 0.1 N HCl. Tubes were vortexed briefly, and then spun in a BHG HermLe Z 230 M microcentrifuge for five min at 15,000×g to precipitate particulates.
The concentration of cAMP in each sample was determined with an RIA of acetylated cAMP, modified from that previously described. Iodination of cAMP was performed using a now-published procedure (Brown et al., 2009). […] Antibody-bound radioactivity was separated by the addition of 25 μL of BioMag rabbit, anti-goat IgG (Advanced Magnetics, Cambridge Mass.), followed by vortexing and incubation at 4° C. for 1 h. […] Supernatants were aspirated and radioactivity in the pellet was determined using an LKB Wallac gamma counter (Gaithersburg, Md.). […]

[8] = biological target: T5, Cloned human receptors D4 (CHO) (Homo sapiens, UniProt P21917); experiment: biochemical
T5 sequence (P21917 1-419): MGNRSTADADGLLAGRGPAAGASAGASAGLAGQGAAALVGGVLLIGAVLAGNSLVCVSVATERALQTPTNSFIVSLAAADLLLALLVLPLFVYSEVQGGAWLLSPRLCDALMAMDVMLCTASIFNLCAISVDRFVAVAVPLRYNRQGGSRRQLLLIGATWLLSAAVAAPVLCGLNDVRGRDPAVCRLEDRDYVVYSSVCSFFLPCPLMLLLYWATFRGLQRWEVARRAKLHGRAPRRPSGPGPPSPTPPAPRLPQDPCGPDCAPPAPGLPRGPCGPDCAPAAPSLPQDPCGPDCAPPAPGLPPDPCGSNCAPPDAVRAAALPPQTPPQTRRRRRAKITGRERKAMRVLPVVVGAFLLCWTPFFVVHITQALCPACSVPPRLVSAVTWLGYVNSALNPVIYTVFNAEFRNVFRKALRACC
Procedure: as §1

T2 sequence (P35462 whole entry): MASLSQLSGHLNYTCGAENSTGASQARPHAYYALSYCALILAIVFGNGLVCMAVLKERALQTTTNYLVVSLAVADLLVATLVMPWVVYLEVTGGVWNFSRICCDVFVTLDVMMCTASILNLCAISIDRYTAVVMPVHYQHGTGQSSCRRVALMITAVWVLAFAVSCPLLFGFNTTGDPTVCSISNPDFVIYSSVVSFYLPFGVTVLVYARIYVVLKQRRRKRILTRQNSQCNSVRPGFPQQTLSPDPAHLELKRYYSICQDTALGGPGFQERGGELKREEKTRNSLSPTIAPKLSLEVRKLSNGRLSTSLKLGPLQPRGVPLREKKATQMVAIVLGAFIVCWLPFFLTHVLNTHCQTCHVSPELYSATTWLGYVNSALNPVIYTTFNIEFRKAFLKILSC
T3 sequence (P14416 whole entry): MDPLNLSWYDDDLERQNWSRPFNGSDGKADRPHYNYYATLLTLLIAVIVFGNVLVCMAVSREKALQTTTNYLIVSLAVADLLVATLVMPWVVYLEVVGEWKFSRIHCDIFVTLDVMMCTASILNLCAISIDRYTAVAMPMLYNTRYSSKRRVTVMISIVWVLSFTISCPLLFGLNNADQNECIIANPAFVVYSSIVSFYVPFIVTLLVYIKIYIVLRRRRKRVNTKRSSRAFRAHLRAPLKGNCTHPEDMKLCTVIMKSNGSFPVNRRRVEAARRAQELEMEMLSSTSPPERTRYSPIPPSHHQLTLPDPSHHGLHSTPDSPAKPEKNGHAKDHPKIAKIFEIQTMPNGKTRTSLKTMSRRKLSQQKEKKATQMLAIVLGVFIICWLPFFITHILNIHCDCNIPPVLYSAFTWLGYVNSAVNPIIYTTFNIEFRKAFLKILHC
T4 sequence (P21728 whole entry): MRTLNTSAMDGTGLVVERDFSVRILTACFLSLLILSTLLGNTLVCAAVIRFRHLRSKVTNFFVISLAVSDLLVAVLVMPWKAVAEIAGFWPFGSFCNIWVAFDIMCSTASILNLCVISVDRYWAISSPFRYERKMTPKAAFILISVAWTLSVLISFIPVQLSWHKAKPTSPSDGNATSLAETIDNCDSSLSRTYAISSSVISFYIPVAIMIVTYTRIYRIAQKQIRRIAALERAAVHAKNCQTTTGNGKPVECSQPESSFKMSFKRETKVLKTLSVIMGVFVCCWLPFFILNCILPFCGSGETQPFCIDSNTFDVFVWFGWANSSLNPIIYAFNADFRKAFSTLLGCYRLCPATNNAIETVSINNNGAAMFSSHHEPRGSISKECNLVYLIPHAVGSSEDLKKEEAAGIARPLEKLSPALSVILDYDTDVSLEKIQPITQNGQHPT
Cloned human receptors D5 (HEK), sequence (P21918 whole entry): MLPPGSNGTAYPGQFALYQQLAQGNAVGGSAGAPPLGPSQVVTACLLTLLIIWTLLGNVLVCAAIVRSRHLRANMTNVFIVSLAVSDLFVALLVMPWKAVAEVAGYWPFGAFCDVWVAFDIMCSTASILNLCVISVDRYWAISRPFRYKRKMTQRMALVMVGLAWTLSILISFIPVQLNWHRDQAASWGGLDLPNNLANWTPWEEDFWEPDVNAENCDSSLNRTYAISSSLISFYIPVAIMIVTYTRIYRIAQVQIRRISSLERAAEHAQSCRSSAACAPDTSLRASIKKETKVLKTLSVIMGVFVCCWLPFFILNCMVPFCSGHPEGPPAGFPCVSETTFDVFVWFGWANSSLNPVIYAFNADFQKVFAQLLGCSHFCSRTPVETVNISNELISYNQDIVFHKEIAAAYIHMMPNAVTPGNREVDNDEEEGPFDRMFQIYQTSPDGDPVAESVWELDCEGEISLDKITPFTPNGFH

Ki ([1]; C-6 cells; read-out: K0.5, Cloned human receptors D1 (C-6)) [nM]	Ki ([2]; CHO cells, read-out: K0.5, Cloned human receptors D3 (CHO)) [nM]	SMILES	Ki [3] [nM]	Ki ([1]; read-out: K0.5, Cloned human receptors D1 (C-6); C-6 cells) [nM]	Ki [4] [nM]	Ki [2] [nM]	affinity for non-dopamine receptors [5]	agonist effects in presence of D1 antagonist SCH23390 ([6]; SCH23390 0.3 mg/kg)	rotation in presence of D2 antagonist haloperidol ([6]; haloperidol 0.1 mg/kg)	duration of activity (rotations over time) ([6]; single subcutaneous injection of 1 mg/kg, FIG. 1)	agonist intrinsic activity and potency (adenylate cyclase, percentage of activation caused by 100 μM dopamine) [7]	Ki [8] [nM]
2.2	15	Oc1cc2c(cc1O)[C@@H]1c3ccccc3CN[C@H]1CC2 (relative stereo) [dihydrexidine, trans-10,11-dihydroxy-5,6,6a,7,8,12b-hexahydrobenzo[a]phenanthridine, reference compound]	–	–	–	–	–	–	–	–	–	–
–	–	Cc1ccc2c(c1)[C@@H]1c3cc(O)c(O)cc3CC[C@H]1NC2 (racemic) [Compound 1, Trans-2-methyl-10,11-dihydroxy-5,6,6a,7,8,12b-hexahydrobenzo[a]phenanthridine hydrochloride]	525	8	7	95	little affinity for most receptors	completely blocked	not blocked	activity lasting for nearly ten hours	full agonist of similar intrinsic activity and potency when compared to dihydrexidine	325
